In patent publication EP0876144B1, “THERAPEUTIC ANTI-ASTHMA AGENTS CONTAINING EBSELEN” (A. Nattermann & Cie. GmbH, priority 1996, dated 1997):
Entries after “also recorded” stand apart in the source; their conditions may differ.

Columns and labels:
[1] = test system: Meerschweinchen, die ein Antigen induziertes Asthma besitzen; assay: antigen (ovalbumin)-induced asthma in conscious, spontaneously breathing guinea pigs; lung function (sGaw) by body plethysmograph; assay type: in vivo, Hartley Meerschweinchen; settings: for Bereiche der Unterdrückung der unmittelbaren asthmatischen Reaktionen: comparison of Ebselen group (5 mg/kg i.p.) with Dexamethason group (1 mg/kg i.p., 4 days)
Description: Die Wirksamkeiten von Ebselen wurden unter Verwendung von Meerschweinchen, die ein Antigen induziertes Asthma besitzen, durch Überprüfung der Lungenfunktionen unter Bewußtsein und spontaner Atmung getestet.
Jedes der weiblichen Hartley Meerschweinchen (SLC) (4 Wochen alt, Körpergewicht etwa 250 bis 300 g) wurden vorbehandelt mit Cyclophosmid (2 mg/kg). Nach zwei Tagen wurden intraperitoneal Ovalbumin (OA, 1 mg) und Aluminiumgel (1 g) injiziert. Drei Wochen später wurden wiederum OA (0,1 mg) und Aluminiumgel (1 g) intraperitoneal injiziert. Die so behandelten Meerschweinchen wurden als sensibilisierte Tiere benutzt. Zu diesem Testzeitpunkt waren die Meerschweinchen elf Wochen alt und hatten ein Körpergewicht von 450 bis 580 g.
Körper-Pressmograph, Drucktyp • Pulmotacograph (TP-601G, Nippon Kodensha) • Differentialmeßwandler (T-601, Nippon Kodensha) • Gasflußwiderstandsrohr (Lilly type, Nippon Kodensha) • Oszilloskop (DS-9121, Iwasaki Tsushinki) • Computer (Macintosh Centris 660 AV, Apple) • Software (zur Analyse der Atmung basierend auf LabView für Macintosh 3.01) • Zerstäuber (NE-U10, Tateishi Denki)
Dexamethason (1 mg/kg) wurde in 100 % DMSO (1 ml) gelöst. Diese Lösung wurde während vier aufeinander folgende Tage intraperitoneal injiziert. Die letzte intraperitoneale Injektion wurde 24 Stunden vor der Induzierung der Antigene durchgeführt.
Gruppe der mit Ebselen vorbehandelten Meerschweinchen Ebselen (5 mg/kg) wurde in 100 % DMSO (1 ml) gelöst. Diese Lösung wurde intraperitoneal 30 Minuten vor der Induzierung der Antigene injiziert.
100 % DMSO (1 ml) wurde intraperitoneal 30 Minuten vor der Induzierung der Antigene injiziert.
OA (40 mg) wurde in einer physiologischen Salzlösung (4 mg/ml) gelöst. Diese Lösung wurde 2 Minuten lang unter Verwendung eines Ultraschallzerstäubers inhaliert.
In Übereinstimmung mit dem Verfahren von Agrawal (Agrawal, K. P.; Specific Airway Conductance in Guinea Pigs: "Normal Values and Histamine Induced Fall", Respiratory Physiology 43:23, 1981) wurde jedes Meerschweinchen auf einem Körper-Pressmograph, Drucktyp, fixiert und die prozentuale Variation des spezifischen Luftweg-Leitwertes (sGaw) wurde gemessen. Der Luftfluß durch die Nase und die Änderung des Innendruckes der Box wurden aufgezeichnet. Die entsprechenden Wellenformen' wurden digital bei 1.024 Hz gesammelt und die Punkte vom Ende des Ausatmens bis zum Beginn des Einatmens wurden als rückläufige Linie aufgezeichnet. Unter Verwendung der Neigung (tan) der rückläufigen Linie wurde der sGaw erhalten. Der sGaw-Wert wurde vor der Induzierung der Antigene gemessen. Nachdem eine physiologische Salzlösung für zwei Minuten inhaliert wurde, wurde der sGaw nochmals gemessen, um sicherzustellen, daß sich keine Daten geändert hatten. […]

Lipoxygenase = settings: Peter Kuhl et al, Prostaglandins, 31 (1986), 1029-1048; cited from earlier work
[2] = acute toxicity test (LD50) in rats; settings: rat, in vivo, Ratte
Excerpt: (§1) Darüber hinaus konnte gefunden werden, daß Ebselen sehr sicher ist, wie dies durch die nachfolgenden und in der Tabelle 1 wiedergegebenen LD50-Werte bewiesen wird, wobei diese Werte das Ergebnis eines Toxizitätstests unter Verwendung von Mäusen und Ratten, denen diese Verbindungen oral oder intraperitoneal verabreicht wurden, darstellen. Selbst dann, wenn diese Verbindungen in hohen Dosen verabreicht werden, zeigen sie keine Nebeneffekte, die ernsthafte Probleme verursachen. Tabelle 1

[3] = acute toxicity test (LD50) in mice; settings: mouse, in vivo, Maus
Excerpt: as §1

| SMILES | Bereiche der Unterdrückung der unmittelbaren asthmatischen Reaktionen [1] | Lipoxygenase inhibierende Wirkung (Lipoxygenase) | LD50 ([2]; ip) | LD50 ([2]; po) | LD50 ([3]; ip) | LD50 ([3]; po) | Unterdrückung der unmittelbaren asthmatischen Reaktionen (sGaw) ([1]; Ebselen 5 mg/kg i.p. 30 min before antigen challenge, compared with control group (DMSO)) | Unterdrückung der späten asthmatischen Reaktionen (sGaw) ([1]; Ebselen 5 mg/kg i.p. 30 min before antigen challenge, compared with control group (late reactions at 180 to 420 min in controls)) |
| --- | --- | --- | --- | --- | --- | --- | --- | --- |
| C[C@@H]1C[C@H]2[C@@H]3CCC4=CC(=O)C=C[C@]4(C)[C@@]3(F)[C@@H](O)C[C@]2(C)[C@@]1(O)C(=O)CO [Dexamethason, reference compound] | überwiegend gleich |  |  |  |  |  |  |  |
| O=c1c2ccccc2[se]n1-c1ccccc1 [Ebselen, 2-Phenyl-1,2-Benzoisoselenazole-3(2H)-one] | überwiegend gleich | deutliche Lipoxygenase inhibierende Wirkung | 580 mg/kg | > 6810 mg/kg | 740 mg/kg | > 6810 mg/kg | wirkungsvoller unterdrückt | wirkungsvoller unterdrückt; also recorded: erheblich und vollständig unterdrückt |
